Experimental data: PubChem BioAssay (NCI)
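GI50 is the concentration that inhibits growth by half. TGI is the concentration that stops growth completely.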

Legend:
Assay in all cases: NCI-60 cell line screen, 384-well format
A549 NSCLC = system: A549 NSCLC
OVCAR-4 ovarian = system: OVCAR-4 ovarian
MDA-MB-231 breast = system: MDA-MB-231 breast
SF-295 CNS = system: SF-295 CNS
SR leukemia = system: SR leukemia
OVCAR-5 ovarian = system: OVCAR-5 ovarian
RXF 393 renal = system: RXF 393 renal
SN12C renal = system: SN12C renal
UO-31 renal = system: UO-31 renal
MOLT-4 leukemia = system: MOLT-4 leukemia
M14 melanoma = system: M14 melanoma
A498 renal = system: A498 renal
MDA-MB-468 breast = system: MDA-MB-468 breast
SK-MEL-28 melanoma = system: SK-MEL-28 melanoma
SNB-75 CNS = system: SNB-75 CNS
HS 578T breast = system: HS 578T breast
SK-MEL-5 melanoma = system: SK-MEL-5 melanoma
HOP-92 NSCLC = system: HOP-92 NSCLC
RPMI-8226 leukemia = system: RPMI-8226 leukemia
SF-539 CNS = system: SF-539 CNS
MDA-MB-435 melanoma = system: MDA-MB-435 melanoma
SF-268 CNS = system: SF-268 CNS
BT-549 breast = system: BT-549 breast
COLO 205 colon = system: COLO 205 colon
LOX IMVI melanoma = system: LOX IMVI melanoma
OVCAR-8 ovarian = system: OVCAR-8 ovarian
NCI/ADR-RES ovarian = system: NCI/ADR-RES ovarian
KM12 colon = system: KM12 colon
NCI-H522 lung = system: NCI-H522 lung
ACHN renal = system: ACHN renal
T-47D breast = system: T-47D breast
NCI-H460 NSCLC = system: NCI-H460 NSCLC
NCI-H226 lung = system: NCI-H226 lung
SK-OV-3 ovarian = system: SK-OV-3 ovarian
DU-145 prostate = system: DU-145 prostate
OVCAR-3 ovarian = system: OVCAR-3 ovarian
HCT-15 colon = system: HCT-15 colon
MALME-3M melanoma = system: MALME-3M melanoma
NCI-H322M lung = system: NCI-H322M lung
TK-10 renal = system: TK-10 renal
MCF7 breast = system: MCF7 breast
HOP-62 NSCLC = system: HOP-62 NSCLC
EKVX NSCLC = system: EKVX NSCLC
UACC-257 melanoma = system: UACC-257 melanoma
NCI-H23 lung = system: NCI-H23 lung
IGROV1 ovarian = system: IGROV1 ovarian
U251 glioblastoma = system: U251 glioblastoma
CAKI-1 renal = system: CAKI-1 renal
SNB-19 CNS = system: SNB-19 CNS
SW-620 colon = system: SW-620 colon
786-0 renal = system: 786-0 renal
UACC-62 melanoma = system: UACC-62 melanoma
PC-3 prostate = system: PC-3 prostate
HCT-116 colon = system: HCT-116 colon
HL-60(TB) leukemia = system: HL-60(TB) leukemia

SMILES: N#CC[C@H](C1CCCC1)n1cc(-c2ncnc3[nH]ccc23)cn1
- GI50 (A549 NSCLC): 18.3 µM
- TGI (A549 NSCLC): 52.6 µM
- GI50 (OVCAR-4 ovarian): 29 µM
- TGI (OVCAR-4 ovarian): 51.2 µM
- GI50 (MDA-MB-231 breast): 16.4 µM
- TGI (MDA-MB-231 breast): 40.3 µM
- GI50 (SF-295 CNS): 18.3 µM
- TGI (SF-295 CNS): 37.9 µM
- GI50 (SR leukemia): 8.31 µM
- TGI (SR leukemia): 20.6 µM
- GI50 (OVCAR-5 ovarian): 23.5 µM
- TGI (OVCAR-5 ovarian): 48.7 µM
- GI50 (RXF 393 renal): 12.9 µM
- TGI (RXF 393 renal): 30.4 µM
- GI50 (SN12C renal): 18.7 µM
- TGI (SN12C renal): 49.7 µM
- GI50 (UO-31 renal): 18.1 µM
- TGI (UO-31 renal): 47.9 µM
- GI50 (MOLT-4 leukemia): 18.3 µM
- TGI (MOLT-4 leukemia): 46.1 µM
- GI50 (M14 melanoma): 27.2 µM
- TGI (M14 melanoma): 50.9 µM
- GI50 (A498 renal): 21.7 µM
- TGI (A498 renal): 41.6 µM
- GI50 (MDA-MB-468 breast): 23.2 µM
- TGI (MDA-MB-468 breast): 53.5 µM
- GI50 (SK-MEL-28 melanoma): 23 µM
- TGI (SK-MEL-28 melanoma): 55.7 µM
- GI50 (SNB-75 CNS): 18.4 µM
- TGI (SNB-75 CNS): 41.3 µM
- GI50 (HS 578T breast): 12.4 µM
- TGI (HS 578T breast): 26 µM
- GI50 (SK-MEL-5 melanoma): 18.2 µM
- TGI (SK-MEL-5 melanoma): 33.1 µM
- GI50 (HOP-92 NSCLC): 22.2 µM
- TGI (HOP-92 NSCLC): 56.3 µM
- GI50 (RPMI-8226 leukemia): 19.4 µM
- TGI (RPMI-8226 leukemia): 34.6 µM
- GI50 (SF-539 CNS): 19.7 µM
- TGI (SF-539 CNS): 42 µM
- GI50 (MDA-MB-435 melanoma): 26.6 µM
- TGI (MDA-MB-435 melanoma): 66.5 µM
- GI50 (SF-268 CNS): 16.2 µM
- TGI (SF-268 CNS): 36.6 µM
- GI50 (BT-549 breast): 19.8 µM
- TGI (BT-549 breast): 34.6 µM
- GI50 (COLO 205 colon): 24.7 µM
- TGI (COLO 205 colon): 53.1 µM
- GI50 (LOX IMVI melanoma): 19.1 µM
- TGI (LOX IMVI melanoma): 35.8 µM
- GI50 (OVCAR-8 ovarian): 27.6 µM
- TGI (OVCAR-8 ovarian): 75.8 µM
- GI50 (NCI/ADR-RES ovarian): 23.4 µM
- TGI (NCI/ADR-RES ovarian): 50.3 µM
- GI50 (KM12 colon): 4.07 µM
- TGI (KM12 colon): > 100 µM
- GI50 (NCI-H522 lung): 13.6 µM
- TGI (NCI-H522 lung): 29.5 µM
- GI50 (ACHN renal): 21.1 µM
- TGI (ACHN renal): 50.9 µM
- GI50 (T-47D breast): 19.5 µM
- TGI (T-47D breast): 63.9 µM
- GI50 (NCI-H460 NSCLC): 16 µM
- TGI (NCI-H460 NSCLC): 46.7 µM
- GI50 (NCI-H226 lung): 5.75 µM
- TGI (NCI-H226 lung): 25 µM
- GI50 (SK-OV-3 ovarian): 21 µM
- TGI (SK-OV-3 ovarian): 45.9 µM
- GI50 (DU-145 prostate): 16 µM
- TGI (DU-145 prostate): 42.1 µM
- GI50 (OVCAR-3 ovarian): 25.8 µM
- TGI (OVCAR-3 ovarian): 51.8 µM
- GI50 (HCT-15 colon): 26.2 µM
- TGI (HCT-15 colon): 82.1 µM
- GI50 (MALME-3M melanoma): 19 µM
- TGI (MALME-3M melanoma): 34.7 µM
- GI50 (NCI-H322M lung): 26.3 µM
- TGI (NCI-H322M lung): 58.7 µM
- GI50 (TK-10 renal): 29 µM
- TGI (TK-10 renal): 89.6 µM
- GI50 (MCF7 breast): 25.9 µM
- TGI (MCF7 breast): 77.7 µM
- GI50 (HOP-62 NSCLC): 18.7 µM
- TGI (HOP-62 NSCLC): 37.1 µM
- GI50 (EKVX NSCLC): 20.9 µM
- TGI (EKVX NSCLC): 66 µM
- GI50 (UACC-257 melanoma): 25.9 µM
- TGI (UACC-257 melanoma): 68.5 µM
- GI50 (NCI-H23 lung): 17.1 µM
- TGI (NCI-H23 lung): 32.8 µM
- GI50 (IGROV1 ovarian): 22.7 µM
- TGI (IGROV1 ovarian): 84.4 µM
- GI50 (U251 glioblastoma): 28.4 µM
- TGI (U251 glioblastoma): 71.8 µM
- GI50 (CAKI-1 renal): 21.3 µM
- TGI (CAKI-1 renal): 50.5 µM
- GI50 (SNB-19 CNS): 30.6 µM
- TGI (SNB-19 CNS): 82.7 µM
- GI50 (SW-620 colon): 29.7 µM
- TGI (SW-620 colon): > 100 µM
- GI50 (786-0 renal): 17.4 µM
- TGI (786-0 renal): 43.9 µM
- GI50 (UACC-62 melanoma): 21.5 µM
- TGI (UACC-62 melanoma): 41.7 µM
- GI50 (PC-3 prostate): 25.7 µM
- TGI (PC-3 prostate): 58.1 µM
- GI50 (HCT-116 colon): 23.5 µM
- TGI (HCT-116 colon): 63.4 µM
- GI50 (HL-60(TB) leukemia): 23.9 µM
- TGI (HL-60(TB) leukemia): 38.8 µM
